Source: the NIST ThermoML archive (doi:10.1016/j.tca.2014.05.033)
Where “and” joins values, the source holds several entries; their conditions need not be identical. Equal values may be shown once. Numbers after ± are expanded uncertainties. Blank lines part the entries; values can stand above or below the compound they belong to.

Assays:
[1] = molar enthalpy of vaporization or sublimation; conditions: 298.15 K; Crystal; DSC
[2] = mn = molality of the nth substance listed, in mol/kg; conditions: 298.15 K, 101 kPa, Liquid, Vibrating tube method
[3] = refractive index (Na D-line) (dimensionless); mn = molality of the nth substance listed, in mol/kg; conditions: 298.15 K, 101 kPa, Liquid, Standard Abbe refractometry

molar enthalpy [1]: 51 ± 1.31 kcal/mol
Structure (SMILES): c1ccc(-c2c3ccccc3c(-c3ccccc3)c3c(-c4ccccc4)c4ccccc4c(-c4ccccc4)c23)cc1 [5,6,11,12-tetraphenylnaphthacene]

Structure (SMILES): c1ccc(-c2ccc(-c3ccccc3)cc2)cc1 [p-terphenyl]
molar enthalpy [1]: 29 ± 1 kcal/mol

Structure (SMILES): c1ccccc1 [benzene] + c1ccc(-c2c3ccccc3cc3ccccc23)cc1
mass density ([2]; m2 = 0): 873.612 ± 0.69 kg/m3
refractive index ([3]; m2 = 0): 1.49758 ± 0.00031

Structure (SMILES): c1ccc(-c2c3ccccc3cc3ccccc23)cc1 [9-phenylanthracene] + c1ccccc1
mass density ([2]; m1 = 0.00011): 873.687 ± 0.71 kg/m3
mass density ([2]; m1 = 0.00032): 873.837 ± 0.75 kg/m3
mass density ([2]; m1 = 0.00038): 873.891 ± 0.91 kg/m3
mass density ([2]; m1 = 0.0008): 874.047 ± 0.39 kg/m3
refractive index ([3]; m1 = 0.00011): 1.49764 ± 0.00031
refractive index ([3]; m1 = 0.00032): 1.49776 ± 0.00031
refractive index ([3]; m1 = 0.00038): 1.4978 ± 0.00031
refractive index ([3]; m1 = 0.0008): 1.49794 ± 0.00031

Structure (SMILES): c1ccccc1 [benzene] + c1ccc(-c2cccc(-c3ccccc3)c2-c2ccccc2)cc1
mass density ([2]; m2 = 0): 873.584 ± 0.76 kg/m3
refractive index ([3]; m2 = 0): 1.49778 ± 0.00031

molar enthalpy [1]: 36.5 ± 1.27 kcal/mol
Structure (SMILES): c1ccc(-c2c3ccccc3c(-c3ccccc3)c3ccccc23)cc1 [9,10-diphenylanthracene]

molar enthalpy [1]: 39.4 ± 1.48 kcal/mol
Structure (SMILES): c1ccc(-c2c(-c3ccccc3)c(-c3ccccc3)c3ccccc3c2-c2ccccc2)cc1 [1,2,3,4-tetraphenylnaphthalene]

mass density ([2]; m1 = 0.00019): 873.334 ± 0.34 kg/m3
mass density ([2]; m1 = 0.00036): 873.403 ± 0.45 kg/m3
mass density ([2]; m1 = 0.00042): 873.437 ± 0.58 kg/m3
mass density ([2]; m1 = 0.00079): 873.534 ± 0.28 kg/m3
refractive index ([3]; m1 = 0.00019): 1.49738 ± 0.00031
refractive index ([3]; m1 = 0.00036): 1.49743 ± 0.00031
refractive index ([3]; m1 = 0.00042): 1.49747 ± 0.00031
refractive index ([3]; m1 = 0.00079): 1.49756 ± 0.00031
Structure (SMILES): C(#Cc1ccccc1)c1ccccc1 [1,2-diphenylethyne] + c1ccccc1

Structure (SMILES): c1ccccc1 [benzene] + c1ccc(-c2c(-c3ccccc3)c(-c3ccccc3)c3ccccc3c2-c2ccccc2)cc1
mass density ([2]; m2 = 0): 873.277 ± 1.3 kg/m3
refractive index ([3]; m2 = 0): 1.49731 ± 0.00031

molar enthalpy [1]: 46.8 ± 1.41 kcal/mol
Structure (SMILES): c1ccc(-c2c(-c3ccccc3)c(-c3ccccc3)c(-c3ccccc3)c(-c3ccccc3)c2-c2ccccc2)cc1 [hexaphenylbenzene]

Structure (SMILES): c1ccc(-c2cccc(-c3ccccc3)c2)cc1 [m-terphenyl] + c1ccccc1
mass density ([2]; m1 = 0.00482): 876.044 ± 0.54 kg/m3
mass density ([2]; m1 = 0.00941): 878.445 ± 0.53 kg/m3
mass density ([2]; m1 = 0.0142): 880.914 ± 0.52 kg/m3
mass density ([2]; m1 = 0.0215): 884.612 ± 0.52 kg/m3
refractive index ([3]; m1 = 0.00482): 1.49966 ± 0.00031
refractive index ([3]; m1 = 0.00941): 1.50149 ± 0.00031
refractive index ([3]; m1 = 0.0142): 1.50336 ± 0.00031
refractive index ([3]; m1 = 0.0215): 1.50621 ± 0.00031

Structure (SMILES): c1ccc(-c2cccc(-c3ccccc3)c2)cc1 [m-terphenyl]
molar enthalpy [1]: 27.6 ± 0.621 kcal/mol

molar enthalpy [1]: 27.8 ± 0.741 kcal/mol
Structure (SMILES): c1ccc2cc3c(ccc4ccccc43)cc2c1 [benz[a]anthracene]

Structure (SMILES): c1cc2ccc3cccc4ccc(c1)c2c34 [pyrene]
molar enthalpy [1]: 25.2 ± 0.789 kcal/mol

mass density ([2]; m1 = 0.00012): 873.64 ± 0.84 kg/m3
mass density ([2]; m1 = 0.00016): 873.666 ± 0.93 kg/m3
mass density ([2]; m1 = 0.00022): 873.731 ± 1.1 kg/m3
mass density ([2]; m1 = 0.00028): 873.796 ± 1.1 kg/m3
mass density ([2]; m1 = 0.0003): 873.822 ± 1.3 kg/m3
refractive index ([3]; m1 = 0.00012): 1.49761 ± 0.00031
refractive index ([3]; m1 = 0.00016): 1.49763 ± 0.00031
refractive index ([3]; m1 = 0.00022): 1.49768 ± 0.00031
refractive index ([3]; m1 = 0.00028): 1.49773 ± 0.00031
refractive index ([3]; m1 = 0.0003): 1.49776 ± 0.00031
Structure (SMILES): c1ccc(-c2c3ccccc3c(-c3ccccc3)c3ccccc23)cc1 [9,10-diphenylanthracene] + c1ccccc1

Structure (SMILES): c1ccc(-c2c3ccccc3cc3ccccc23)cc1 [9-phenylanthracene]
molar enthalpy [1]: 30 ± 0.765 kcal/mol

Structure (SMILES): c1ccc2c(c1)-c1cccc3cccc-2c13 [fluoranthene]
molar enthalpy [1]: 24.1 ± 0.669 kcal/mol

Structure (SMILES): c1ccccc1 [benzene] + c1ccc(-c2c3ccccc3c(-c3ccccc3)c3ccccc23)cc1
mass density ([2]; m2 = 0): 873.534 ± 0.89 kg/m3
refractive index ([3]; m2 = 0): 1.49752 ± 0.00031

mass density ([2]; m1 = 8e-05): 873.38 ± 1.3 kg/m3
mass density ([2]; m1 = 0.00011): 873.424 ± 1.2 kg/m3
mass density ([2]; m1 = 0.00022): 873.551 ± 1.3 kg/m3
refractive index ([3]; m1 = 0.0008): 1.49737 ± 0.00031
refractive index ([3]; m1 = 0.0011): 1.4974 ± 0.00031
refractive index ([3]; m1 = 0.0017): 1.49744 ± 0.00031 and 1.49745 ± 0.00031
refractive index ([3]; m1 = 0.0022): 1.49748 ± 0.00031
Structure (SMILES): c1ccc(-c2c(-c3ccccc3)c(-c3ccccc3)c3ccccc3c2-c2ccccc2)cc1 [1,2,3,4-tetraphenylnaphthalene] + c1ccccc1
mass density ([2]; m1 = 0.00017): 873.488 ± 1.2 kg/m3 and 873.494 ± 1.2 kg/m3

molar enthalpy [1]: 33.1 ± 1 kcal/mol
Structure (SMILES): c1ccc(-c2cccc(-c3ccccc3)c2-c2ccccc2)cc1 [1,2,3-triphenylbenzene]

mass density ([2]; m1 = 0.00038): 873.87 ± 0.78 kg/m3
mass density ([2]; m1 = 0.00061): 874.054 ± 0.83 kg/m3
mass density ([2]; m1 = 0.0007): 874.135 ± 0.78 kg/m3
mass density ([2]; m1 = 0.0008): 874.201 ± 0.67 kg/m3
refractive index ([3]; m1 = 0.00038): 1.49797 ± 0.00031
refractive index ([3]; m1 = 0.00061): 1.49809 ± 0.00031
refractive index ([3]; m1 = 0.0007): 1.49814 ± 0.00031
refractive index ([3]; m1 = 0.0008): 1.49819 ± 0.00031
Structure (SMILES): c1ccc(-c2cccc(-c3ccccc3)c2-c2ccccc2)cc1 [1,2,3-triphenylbenzene] + c1ccccc1

molar enthalpy [1]: 24.6 ± 0.669 kcal/mol
Structure (SMILES): C(=C\c1ccccc1)/c1ccccc1 [(E)-1,2-diphenylethene]

molar enthalpy [1]: 22 ± 1.08 kcal/mol
Structure (SMILES): C(#Cc1ccccc1)c1ccccc1 [1,2-diphenylethyne]

Structure (SMILES): c1ccccc1 [benzene] + c1ccc(-c2cccc(-c3ccccc3)c2)cc1
mass density ([2]; m2 = 0): 873.483 ± 0.54 kg/m3
refractive index ([3]; m2 = 0): 1.49772 ± 0.00031

molar enthalpy [1]: 35.4 ± 1.12 kcal/mol
Structure (SMILES): c1ccc2c(c1)ccc1cc3c(ccc4ccccc43)cc12 [dibenz[a,h]anthracene]

Structure (SMILES): c1ccccc1 [benzene] + C(#Cc1ccccc1)c1ccccc1
mass density ([2]; m2 = 0): 873.285 ± 0.28 kg/m3
refractive index ([3]; m2 = 0): 1.49734 ± 0.00031
